Legend:
[1] = target: T1, Human CD73 (amino acid residues 27-549) (Homo sapiens, UniProt P21589); experiment: CD73 enzymatic assay (luciferase-based indirect assay, CellTiter-Glo); assay type: biochemical; details: 0.4 nM CD73, 150 μM AMP, 1 hour at room temperature
T1 construct: Human CD73 (amino acid residues 27-549); His tag (N); made in house; host or cells: E. coli
T1 sequence (P21589 27-549): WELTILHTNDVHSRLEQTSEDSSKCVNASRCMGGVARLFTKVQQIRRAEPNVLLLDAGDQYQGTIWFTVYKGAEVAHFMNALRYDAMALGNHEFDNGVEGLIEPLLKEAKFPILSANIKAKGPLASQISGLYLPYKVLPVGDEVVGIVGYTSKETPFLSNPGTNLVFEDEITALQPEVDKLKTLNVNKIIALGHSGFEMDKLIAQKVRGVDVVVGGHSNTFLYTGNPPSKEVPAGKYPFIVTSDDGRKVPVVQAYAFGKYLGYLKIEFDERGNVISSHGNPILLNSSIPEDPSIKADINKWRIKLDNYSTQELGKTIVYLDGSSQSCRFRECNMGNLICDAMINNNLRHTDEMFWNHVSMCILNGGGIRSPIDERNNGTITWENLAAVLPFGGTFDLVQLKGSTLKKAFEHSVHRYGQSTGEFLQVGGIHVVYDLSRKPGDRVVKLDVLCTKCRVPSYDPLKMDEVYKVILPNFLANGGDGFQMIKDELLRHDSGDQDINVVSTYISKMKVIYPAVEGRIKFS
In short: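 Residual AMP inhibits luciferase, so luminescence reports CD73 turnover; read with CellTiter-Glo 2.0 plus 1 μM final ATP, 30 min. Reaction used 0.4 nM N-His CD73 (27-549, E. coli), 150 μM AMP, HEPES pH 7.4 with Tween 20, 1 h at room temperature. IC50 fitted by nonlinear regression.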

[2] = target: T2, human CD73 (Homo sapiens, UniProt P21589); experiment: Inhibitor activity against CD73 in cell based assay (CD73 expressing CHO-K1 cells); details: CHO-K1 cells expressing human CD73, 150 μM AMP, 4 hours of incubation; read-out: CHO-K1 CELL VARIANT: CD73 IC50
T2 construct: expressed in transfected cells
T2 sequence (P21589 27-549): T1 sequence (P21589 27-549)
In short: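 Residual supernatant AMP was quantified via CellTiter-Glo luminescence (1 μM ATP added, 30 min, room temperature) after a 4 h exposure of human CD73-expressing CHO-K1 cells to 150 μM AMP plus compound, top final 10 μM, 8 points. IC50 came from nonlinear regression of percent inhibition.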

Structure (SMILES) | IC50 [1] [µM] | IC50 [2] [µM]
O=C(N[C@H]1CC[C@H](C(=O)NC2CC2)CC1)O[C@@H]1CCN(c2cn[nH]c(=O)c2Cl)C1 [P-0192, (R)-1-(5-chloro-6-oxo-1,6-dihydropyridazin-4-yl)pyrrolidin-3-yl ((1r,4R)-4-(cyclopropylcarbamoyl)cyclohexyl)carbamate] | 0.001 to 10 | 0.001 to 10
CCN(C)C(=O)[C@H]1CC[C@H](NC(=O)O[C@@H]2CCN(c3cn[nH]c(=O)c3Cl)C2)CC1 [P-0193, (R)-1-(5-chloro-6-oxo-1,6-dihydropyridazin-4-yl)pyrrolidin-3-yl ((1r,4R)-4-(ethyl(methyl)carbamoyl)cyclohexyl)carbamate] | 0.001 to 10 | 0.001 to 10
O=C(N[C@H]1CC[C@H](C(=O)Nc2ccccc2)CC1)O[C@@H]1CCN(c2cn[nH]c(=O)c2Cl)C1 [P-0194, (R)-1-(5-chloro-6-oxo-1,6-dihydropyridazin-4-yl)pyrrolidin-3-yl ((1r,4R)-4-(phenylcarbamoyl)cyclohexyl) carbamate] | 0.001 to 10 | 0.001 to 10
O=C(N[C@H]1CC[C@@H](NC(=O)c2ccc(F)cc2)CC1)O[C@@H]1CCN(c2cn[nH]c(=O)c2Cl)C1 [P-0195, (R)-1-(5-chloro-6-oxo-1,6-dihydropyridazin-4-yl)pyrrolidin-3-yl ((1s,4S)-4-(4-fluorobenzamido)cyclohexyl) carbamate] | 0.001 to 10 | 0.001 to 10
CC(=O)N[C@H]1CC[C@@H](NC(=O)O[C@@H]2CCN(c3cn[nH]c(=O)c3Cl)C2)CC1 [P-0196, (R)-1-(5-chloro-6-oxo-1,6-dihydropyridazin-4-yl)pyrrolidin-3-yl ((1s,4S)-4-acetamidocyclohexyl)carbamate] | 0.001 to 10 | 0.001 to 10
O=C(NC1CCCCC1)N[C@H]1CC[C@@H](NC(=O)O[C@@H]2CCN(c3cn[nH]c(=O)c3Cl)C2)CC1 [P-0197, (R)-1-(5-chloro-6-oxo-1,6-dihydropyridazin-4-yl)pyrrolidin-3-yl ((1s,4S)-4-(3-cyclohexylureido)cyclohexyl) carbamate] | 0.001 to 10 | 0.001 to 10
O=C(NC1CC2(C1)CN(C(=O)Nc1ccc(F)cc1)C2)O[C@@H]1CCN(c2cn[nH]c(=O)c2Cl)C1 [P-0198, (R)-1-(5-chloro-6-oxo-1,6-dihydropyridazin-4-yl)pyrrolidin-3-yl (2-((4-fluorophenyl)carbamoyl)-2-azaspiro[3.3]heptan-6-yl)carbamate] | 0.001 to 10 | 10 to 100
CCCNC(=O)[C@H]1C[C@H](NC(=O)O[C@@H]2CCN(c3cn[nH]c(=O)c3Cl)C2)C1 [P-0199, (R)-1-(5-chloro-6-oxo-1,6-dihydropyridazin-4-yl)pyrrolidin-3-yl ((1r,3R)-3-(propylcarbamoyl)cyclobutyl) carbamate] | 0.001 to 10 | 10 to 100
O=C(N[C@H]1C[C@H](C(=O)Nc2ccccc2)C1)O[C@@H]1CCN(c2cn[nH]c(=O)c2Cl)C1 [P-0200, (R)-1-(5-chloro-6-oxo-1,6-dihydropyridazin-4-yl)pyrrolidin-3-yl ((1r,3R)-3-(phenylcarbamoyl)cyclobutyl) carbamate] | 0.001 to 10 | 0.001 to 10
Cn1ncc(N2CC[C@@H](OC(=O)N[C@H]3CC[C@H](NS(=O)(=O)c4ccccc4F)CC3)C2)c(Cl)c1=O [P-0201, (R)-1-(5-chloro-1-methyl-6-oxo-1,6-dihydropyridazin-4-yl)pyrrolidin-3-yl ((1r,4R)-4-((2-fluorophenyl)sulfonamido)cyclohexyl)carbamate] | 0.001 to 10 | 0.001 to 10
Cn1ncc(N2CC[C@@H](OC(=O)NC3CCC(F)(F)CC3)C2)c(Cl)c1=O [P-0202, (R)-1-(5-chloro-1-methyl-6-oxo-1,6-dihydropyridazin-4-yl)pyrrolidin-3-yl (4,4-difluorocyclohexyl)carbamate] | 0.001 to 10 | 0.001 to 10

Now from value to compound:

IC50 [1] [µM] | IC50 [2] [µM] | Structure (SMILES)
0.001 to 10 | 0.001 to 10 | CC(C)(C)C1CCC(NC(=O)O[C@@H]2CCN(c3cn[nH]c(=O)c3Cl)C2)CC1 (stereo partly drawn) [P-0203, (R)-1-(5-chloro-6-oxo-1,6-dihydropyridazin-4-yl)pyrrolidin-3-yl (4-(tert-butyl)cyclohexyl)carbamate]
0.001 to 10 | 0.001 to 10 | O=C(NC1CC2CCC1C2)O[C@@H]1CCN(c2cn[nH]c(=O)c2Cl)C1 (stereo partly drawn) [P-0204, (R)-1-(5-chloro-6-oxo-1,6-dihydropyridazin-4-yl)pyrrolidin-3-yl bicyclo[2.2.1]heptan-2-ylcarbamate]
0.001 to 10 | 0.001 to 10 | O=C(NC1CCCCCC1)O[C@@H]1CCN(c2cn[nH]c(=O)c2Cl)C1 [P-0205, (R)-1-(5-chloro-6-oxo-1,6-dihydropyridazin-4-yl)pyrrolidin-3-yl cycloheptylcarbamate]
0.001 to 10 | 0.001 to 10 | O=C(NC1Cc2ccccc2C1)O[C@@H]1CCN(c2cn[nH]c(=O)c2Cl)C1 [P-0206, (R)-1-(5-chloro-6-oxo-1,6-dihydropyridazin-4-yl)pyrrolidin-3-yl (2,3-dihydro-1H-inden-2-yl)carbamate]
0.001 to 10 | 0.001 to 10 | O=C(NC1CCc2[nH]ncc2C1)O[C@@H]1CCN(c2cn[nH]c(=O)c2Cl)C1 (stereo partly drawn) [P-0207, (R)-1-(5-chloro-6-oxo-1,6-dihydropyridazin-4-yl)pyrrolidin-3-yl (4,5,6,7-tetrahydro-1H-indazol-5-yl)carbamate]
0.001 to 10 | 0.001 to 10 | CN1CC(NC(=O)O[C@@H]2CCN(c3cn[nH]c(=O)c3Cl)C2)CC1=O (stereo partly drawn) [P-0208, (R)-1-(5-chloro-6-oxo-1,6-dihydropyridazin-4-yl)pyrrolidin-3-yl (1-methyl-5-oxopyrrolidin-3-yl)carbamate]
0.001 to 10 | 0.001 to 10 | CCCN1CC(NC(=O)O[C@@H]2CCN(c3cn[nH]c(=O)c3Cl)C2)CC1=O (stereo partly drawn) [P-0209, (R)-1-(5-chloro-6-oxo-1,6-dihydropyridazin-4-yl)pyrrolidin-3-yl (5-oxo-1-propylpyrrolidin-3-yl)carbamate]
0.001 to 10 | 0.001 to 10 | Cn1ncc(N2CC[C@@H](OC(=O)N[C@H]3CC[C@@H](C)CC3)C2)c(Cl)c1=O [P-0210, (R)-1-(5-chloro-1-methyl-6-oxo-1,6-dihydropyridazin-4-yl)pyrrolidin-3-yl ((1s,4S)-4-methylcyclohexyl)carbamate]
0.001 to 10 | 0.001 to 10 | Cn1ncc(N2CC[C@@H](OC(=O)N[C@H]3CC[C@@H](NC(=O)c4ccccc4)CC3)C2)c(Cl)c1=O [P-0211, (R)-1-(5-chloro-1-methyl-6-oxo-1,6-dihydropyridazin-4-yl)pyrrolidin-3-yl ((1s,4S)-4-benzamidocyclohexyl) carbamate]
0.001 to 10 | 0.001 to 10 | O=C(NC1CC2(C1)CN(S(=O)(=O)c1ccc(F)cc1)C2)O[C@@H]1CCN(c2cn[nH]c(=O)c2Cl)C1 [P-0212, (R)-1-(5-chloro-6-oxo-1,6-dihydropyridazin-4-yl)pyrrolidin-3-yl (2-((4-fluorophenyl)sulfonyl)-2-azaspiro[3.3]heptan-6-yl)carbamate]
0.001 to 10 | 0.001 to 10 | O=CNC1CC2(C1)CC(NC(=O)O[C@@H]1CCN(c3cn[nH]c(=O)c3Cl)C1)C2 (stereo partly drawn) [P-0213, (R)-1-(5-chloro-6-oxo-1,6-dihydropyridazin-4-yl)pyrrolidin-3-yl (6-formamidospiro[3.3]heptan-2-yl)carbamate]

From patent publication US12509444B2, “Compounds and methods for CD73 modulation and indications therefor” (Plexxikon Inc., priority 2019, dated 2025)
